Oligonucleotides are given in HELM: sugar(base)linkage, 5' to 3'; d 2'-deoxyribose, r ribose, m 2'-O-methylribose, p phosphate. ss, as = sense and antisense strand
Note: test concentration or dose not given here.

The data set has as its target UBE2N. Nature of the data set: reporter assay of Huesken 2005. Particulars: siRNA. (Reporter assays use an easily measured gene product as a stand-in for the process of interest.)
The substance “RNA1{r(U)p.r(U)p.r(C)p.r(A)p.r(U)p.r(G)p.r(U)p.r(G)p.r(G)p.r(U)p.r(C)p.r(A)p.r(U)p.r(U)p.r(G)p.r(C)p.r(U)p.r(G)p.r(G)p.d(T)p.d(T)}|RNA2{r(C)p.r(C)p.r(A)p.r(G)p.r(C)p.r(A)p.r(A)p.r(U)p.r(G)p.r(A)p.r(C)p.r(C)p.r(A)p.r(C)p.r(A)p.r(U)p.r(G)p.r(A)p.r(A)p.d(A)p.d(A)}$$$RNA1{StrandType:ss}|RNA2{StrandType:as}$” came in with a normalised inhibition (eCFP-eYFP dual reporter) of 39.5%.
Then “RNA1{r(A)p.r(U)p.r(A)p.r(G)p.r(A)p.r(A)p.r(A)p.r(C)p.r(A)p.r(G)p.r(C)p.r(U)p.r(A)p.r(G)p.r(A)p.r(G)p.r(C)p.r(A)p.r(U)p.d(T)p.d(T)}|RNA2{r(A)p.r(U)p.r(G)p.r(C)p.r(U)p.r(C)p.r(U)p.r(A)p.r(G)p.r(C)p.r(U)p.r(G)p.r(U)p.r(U)p.r(U)p.r(C)p.r(U)p.r(A)p.r(U)p.d(G)p.d(G)}$$$RNA1{StrandType:ss}|RNA2{StrandType:as}$”, with 91.8%.
With “RNA1{r(A)p.r(A)p.r(G)p.r(C)p.r(C)p.r(A)p.r(U)p.r(A)p.r(G)p.r(A)p.r(A)p.r(A)p.r(C)p.r(A)p.r(G)p.r(C)p.r(U)p.r(A)p.r(G)p.d(T)p.d(T)}|RNA2{r(C)p.r(U)p.r(A)p.r(G)p.r(C)p.r(U)p.r(G)p.r(U)p.r(U)p.r(U)p.r(C)p.r(U)p.r(A)p.r(U)p.r(G)p.r(G)p.r(C)p.r(U)p.r(U)p.d(G)p.d(G)}$$$RNA1{StrandType:ss}|RNA2{StrandType:as}$”, the normalised inhibition (eCFP-eYFP dual reporter) was determined as 90.4%.
Then “RNA1{r(C)p.r(A)p.r(A)p.r(C)p.r(G)p.r(C)p.r(C)p.r(C)p.r(G)p.r(U)p.r(U)p.r(A)p.r(U)p.r(U)p.r(U)p.r(U)p.r(C)p.r(A)p.r(U)p.d(T)p.d(T)}|RNA2{r(A)p.r(U)p.r(G)p.r(A)p.r(A)p.r(A)p.r(A)p.r(U)p.r(A)p.r(A)p.r(C)p.r(G)p.r(G)p.r(G)p.r(C)p.r(G)p.r(U)p.r(U)p.r(G)p.d(C)p.d(T)}$$$RNA1{StrandType:ss}|RNA2{StrandType:as}$”, with 87.1%.
“RNA1{r(A)p.r(U)p.r(U)p.r(A)p.r(G)p.r(C)p.r(A)p.r(A)p.r(A)p.r(U)p.r(G)p.r(A)p.r(U)p.r(G)p.r(U)p.r(A)p.r(G)p.r(C)p.r(G)p.d(T)p.d(T)}|RNA2{r(C)p.r(G)p.r(C)p.r(U)p.r(A)p.r(C)p.r(A)p.r(U)p.r(C)p.r(A)p.r(U)p.r(U)p.r(U)p.r(G)p.r(C)p.r(U)p.r(A)p.r(A)p.r(U)p.d(G)p.d(G)}$$$RNA1{StrandType:ss}|RNA2{StrandType:as}$” yielded a normalised inhibition (eCFP-eYFP dual reporter) of 34.2%.
Then “RNA1{r(G)p.r(A)p.r(A)p.r(C)p.r(U)p.r(A)p.r(U)p.r(U)p.r(C)p.r(C)p.r(U)p.r(U)p.r(C)p.r(C)p.r(A)p.r(G)p.r(A)p.r(A)p.r(G)p.d(T)p.d(T)}|RNA2{r(C)p.r(U)p.r(U)p.r(C)p.r(U)p.r(G)p.r(G)p.r(A)p.r(A)p.r(G)p.r(G)p.r(A)p.r(A)p.r(U)p.r(A)p.r(G)p.r(U)p.r(U)p.r(C)p.d(A)p.d(A)}$$$RNA1{StrandType:ss}|RNA2{StrandType:as}$”, with 87.5%; and “RNA1{r(U)p.r(C)p.r(C)p.r(A)p.r(G)p.r(A)p.r(U)p.r(G)p.r(A)p.r(U)p.r(C)p.r(C)p.r(A)p.r(U)p.r(U)p.r(A)p.r(G)p.r(C)p.r(A)p.d(T)p.d(T)}|RNA2{r(U)p.r(G)p.r(C)p.r(U)p.r(A)p.r(A)p.r(U)p.r(G)p.r(G)p.r(A)p.r(U)p.r(C)p.r(A)p.r(U)p.r(C)p.r(U)p.r(G)p.r(G)p.r(A)p.d(T)p.d(T)}$$$RNA1{StrandType:ss}|RNA2{StrandType:as}$”, with 85.9%; and “RNA1{r(A)p.r(G)p.r(A)p.r(A)p.r(C)p.r(C)p.r(A)p.r(G)p.r(U)p.r(U)p.r(C)p.r(C)p.r(U)p.r(G)p.r(G)p.r(C)p.r(A)p.r(U)p.r(C)p.d(T)p.d(T)}|RNA2{r(G)p.r(A)p.r(U)p.r(G)p.r(C)p.r(C)p.r(A)p.r(G)p.r(G)p.r(A)p.r(A)p.r(C)p.r(U)p.r(G)p.r(G)p.r(U)p.r(U)p.r(C)p.r(U)p.d(G)p.d(C)}$$$RNA1{StrandType:ss}|RNA2{StrandType:as}$”, with 60.7%.
Then “RNA1{r(A)p.r(A)p.r(G)p.r(U)p.r(G)p.r(G)p.r(U)p.r(C)p.r(C)p.r(C)p.r(C)p.r(A)p.r(G)p.r(C)p.r(A)p.r(C)p.r(U)p.r(G)p.r(C)p.d(T)p.d(T)}|RNA2{r(G)p.r(C)p.r(A)p.r(G)p.r(U)p.r(G)p.r(C)p.r(U)p.r(G)p.r(G)p.r(G)p.r(G)p.r(A)p.r(C)p.r(C)p.r(A)p.r(C)p.r(U)p.r(U)p.d(A)p.d(T)}$$$RNA1{StrandType:ss}|RNA2{StrandType:as}$”, with 48.2%; and “RNA1{r(C)p.r(A)p.r(G)p.r(U)p.r(U)p.r(C)p.r(C)p.r(U)p.r(G)p.r(G)p.r(C)p.r(A)p.r(U)p.r(C)p.r(A)p.r(A)p.r(A)p.r(G)p.r(C)p.d(T)p.d(T)}|RNA2{r(G)p.r(C)p.r(U)p.r(U)p.r(U)p.r(G)p.r(A)p.r(U)p.r(G)p.r(C)p.r(C)p.r(A)p.r(G)p.r(G)p.r(A)p.r(A)p.r(C)p.r(U)p.r(G)p.d(G)p.d(T)}$$$RNA1{StrandType:ss}|RNA2{StrandType:as}$”, with 61.4%; and “RNA1{r(U)p.r(C)p.r(C)p.r(G)p.r(C)p.r(A)p.r(C)p.r(A)p.r(G)p.r(U)p.r(U)p.r(C)p.r(U)p.r(G)p.r(C)p.r(U)p.r(A)p.r(U)p.r(C)p.d(T)p.d(T)}|RNA2{r(G)p.r(A)p.r(U)p.r(A)p.r(G)p.r(C)p.r(A)p.r(G)p.r(A)p.r(A)p.r(C)p.r(U)p.r(G)p.r(U)p.r(G)p.r(C)p.r(G)p.r(G)p.r(A)p.d(T)p.d(C)}$$$RNA1{StrandType:ss}|RNA2{StrandType:as}$”, with 63.5%.
For the substance “RNA1{r(C)p.r(U)p.r(A)p.r(A)p.r(A)p.r(G)p.r(U)p.r(A)p.r(C)p.r(G)p.r(U)p.r(U)p.r(U)p.r(C)p.r(A)p.r(U)p.r(G)p.r(A)p.r(C)p.d(T)p.d(T)}|RNA2{r(G)p.r(U)p.r(C)p.r(A)p.r(U)p.r(G)p.r(A)p.r(A)p.r(A)p.r(C)p.r(G)p.r(U)p.r(A)p.r(C)p.r(U)p.r(U)p.r(U)p.r(A)p.r(G)p.d(G)p.d(G)}$$$RNA1{StrandType:ss}|RNA2{StrandType:as}$”, the normalised inhibition (eCFP-eYFP dual reporter) was determined as 79.5%.
In turn, “RNA1{r(A)p.r(A)p.r(A)p.r(U)p.r(G)p.r(A)p.r(U)p.r(G)p.r(U)p.r(A)p.r(G)p.r(C)p.r(G)p.r(G)p.r(A)p.r(G)p.r(C)p.r(A)p.r(G)p.d(T)p.d(T)}|RNA2{r(C)p.r(U)p.r(G)p.r(C)p.r(U)p.r(C)p.r(C)p.r(G)p.r(C)p.r(U)p.r(A)p.r(C)p.r(A)p.r(U)p.r(C)p.r(A)p.r(U)p.r(U)p.r(U)p.d(G)p.d(C)}$$$RNA1{StrandType:ss}|RNA2{StrandType:as}$” came in with a normalised inhibition (eCFP-eYFP dual reporter) of 43.2%.
Then “RNA1{r(C)p.r(G)p.r(A)p.r(A)p.r(G)p.r(C)p.r(C)p.r(C)p.r(A)p.r(A)p.r(G)p.r(C)p.r(C)p.r(A)p.r(U)p.r(A)p.r(G)p.r(A)p.r(A)p.d(T)p.d(T)}|RNA2{r(U)p.r(U)p.r(C)p.r(U)p.r(A)p.r(U)p.r(G)p.r(G)p.r(C)p.r(U)p.r(U)p.r(G)p.r(G)p.r(G)p.r(C)p.r(U)p.r(U)p.r(C)p.r(G)p.d(T)p.d(T)}$$$RNA1{StrandType:ss}|RNA2{StrandType:as}$”, with 84.1%.
Then “RNA1{r(U)p.r(G)p.r(G)p.r(C)p.r(A)p.r(U)p.r(C)p.r(A)p.r(A)p.r(A)p.r(G)p.r(C)p.r(C)p.r(G)p.r(A)p.r(A)p.r(C)p.r(C)p.r(A)p.d(T)p.d(T)}|RNA2{r(U)p.r(G)p.r(G)p.r(U)p.r(U)p.r(C)p.r(G)p.r(G)p.r(C)p.r(U)p.r(U)p.r(U)p.r(G)p.r(A)p.r(U)p.r(G)p.r(C)p.r(C)p.r(A)p.d(G)p.d(G)}$$$RNA1{StrandType:ss}|RNA2{StrandType:as}$”, with 81.6%; and “RNA1{r(C)p.r(U)p.r(U)p.r(U)p.r(G)p.r(A)p.r(G)p.r(G)p.r(G)p.r(A)p.r(G)p.r(G)p.r(G)p.r(A)p.r(C)p.r(U)p.r(U)p.r(U)p.r(U)p.d(T)p.d(T)}|RNA2{r(A)p.r(A)p.r(A)p.r(A)p.r(G)p.r(U)p.r(C)p.r(C)p.r(C)p.r(U)p.r(C)p.r(C)p.r(C)p.r(U)p.r(C)p.r(A)p.r(A)p.r(A)p.r(G)p.d(G)p.d(G)}$$$RNA1{StrandType:ss}|RNA2{StrandType:as}$”, with 70.6%.
With “RNA1{r(C)p.r(A)p.r(A)p.r(A)p.r(U)p.r(G)p.r(A)p.r(U)p.r(G)p.r(U)p.r(A)p.r(G)p.r(C)p.r(G)p.r(G)p.r(A)p.r(G)p.r(C)p.r(A)p.d(T)p.d(T)}|RNA2{r(U)p.r(G)p.r(C)p.r(U)p.r(C)p.r(C)p.r(G)p.r(C)p.r(U)p.r(A)p.r(C)p.r(A)p.r(U)p.r(C)p.r(A)p.r(U)p.r(U)p.r(U)p.r(G)p.d(C)p.d(T)}$$$RNA1{StrandType:ss}|RNA2{StrandType:as}$”, the normalised inhibition (eCFP-eYFP dual reporter) worked out at 64.2%.
In the case of “RNA1{r(C)p.r(C)p.r(A)p.r(G)p.r(A)p.r(U)p.r(G)p.r(A)p.r(G)p.r(A)p.r(G)p.r(C)p.r(A)p.r(A)p.r(C)p.r(G)p.r(C)p.r(C)p.r(C)p.d(T)p.d(T)}|RNA2{r(G)p.r(G)p.r(G)p.r(C)p.r(G)p.r(U)p.r(U)p.r(G)p.r(C)p.r(U)p.r(C)p.r(U)p.r(C)p.r(A)p.r(U)p.r(C)p.r(U)p.r(G)p.r(G)p.d(T)p.d(T)}$$$RNA1{StrandType:ss}|RNA2{StrandType:as}$”, the normalised inhibition (eCFP-eYFP dual reporter) worked out at 65.8%.
Then “RNA1{r(A)p.r(U)p.r(G)p.r(U)p.r(G)p.r(G)p.r(U)p.r(C)p.r(A)p.r(U)p.r(U)p.r(G)p.r(C)p.r(U)p.r(G)p.r(G)p.r(C)p.r(C)p.r(C)p.d(T)p.d(T)}|RNA2{r(G)p.r(G)p.r(G)p.r(C)p.r(C)p.r(A)p.r(G)p.r(C)p.r(A)p.r(A)p.r(U)p.r(G)p.r(A)p.r(C)p.r(C)p.r(A)p.r(C)p.r(A)p.r(U)p.d(G)p.d(A)}$$$RNA1{StrandType:ss}|RNA2{StrandType:as}$”, with 47.1%.
With “RNA1{r(U)p.r(A)p.r(G)p.r(C)p.r(G)p.r(G)p.r(A)p.r(G)p.r(C)p.r(A)p.r(G)p.r(U)p.r(G)p.r(G)p.r(A)p.r(A)p.r(G)p.r(A)p.r(C)p.d(T)p.d(T)}|RNA2{r(G)p.r(U)p.r(C)p.r(U)p.r(U)p.r(C)p.r(C)p.r(A)p.r(C)p.r(U)p.r(G)p.r(C)p.r(U)p.r(C)p.r(C)p.r(G)p.r(C)p.r(U)p.r(A)p.d(C)p.d(A)}$$$RNA1{StrandType:ss}|RNA2{StrandType:as}$”, the normalised inhibition (eCFP-eYFP dual reporter) came out at 40.2%.

These data come from the OligoGym collection.
